Tests used:
HepG2 cells [1] = assay: Intracellular ROS, DCFH-DA, flow cytometry; format: cell-based, human; conditions: HepG2, 2, 4 and 8 μmol/L, 48 h, compared with the control group
Description: Flow cytometry was additionally used to determine the effect of compound 3k·CH3I on ROS levels in HepG2 cells.
HepG2 cells were inoculated into a six-well plate with 2 mL cell suspension per well at a concentration of 1 × 10^6 cells/mL overnight in an incubation chamber maintained at 37 °C with a 5% CO2 atmosphere. The cells were treated with different concentrations of compound 3k·CH3I (0, 2, 4 and 8 μmol/L) and continued to be cultured for 48 h. The cells underwent a PBS rinse to cleanse them, subsequent digestion with a 0.25% trypsin solution to facilitate detachment, and subsequent centrifugation at 800 revolutions per minute (rpm) for 5 min to sediment the cells. The ensuing cell pellet was then re-suspended in 1 mL of nutrient-rich cell culture medium for further experimental procedures. Then, 5 μmol/L DCFH-DA solution was added to each well and they were incubated for 30 min away from light. After incubation, the cells were digested, the supernatant was centrifuged, and the PBS cell suspension was taken and placed in a flow cytometry to determine the experimental results.

HepG2 cells [2] = assay: AO/EB double staining, cell morphology; format: cell-based, human; conditions: HepG2, 48 h, 2, 4 and 8 μmol/L
Description: The apoptotic morphological alterations induced by compound 3k·CH3I in HepG2 cells were scrutinized after a 48-h treatment using the acridine orange/ethidium bromide (AO/EB) double staining method, as depicted in Figure 6.
In this study, human hepatoma HepG2 cells were treated with compound 3k·CH3I, and the tested cells were stained by the AO/EB double staining (KeyGEN BioTECH, Nanjing, China) method to observe the morphological changes of the cells. HepG2 cells of logarithmic growth stage were inoculated into confocal six-well plates, and a volume of 2 mL of the cell suspension, adjusted to a concentration of 1 × 10^6 cells per milliliter, was introduced into each well. The cells were cultured in an aseptic constant temperature incubator for 24 h, and 3k·CH3I solution with concentrations of 0, 2, 4, and 8 μmol/L was added successively, and the culture continued for 48 h. The cellular specimens were rinsed with phosphate-buffered saline (PBS) on two occasions, after which 500 µL of staining buffer was introduced to the preparation, followed by storage in a light-protected environment for subsequent analysis. AO (5 µL) and EB (5 µL) staining solutions were added to the six-well plates successively, mixed and incubated at 4 °C for 20 min under light protection, then PBS was added and observed under a fluorescence microscope.

[3] = test system: human liver cancer cell line HepG2; assay: MTT anti-proliferative assay, HepG2; format: cell-based
From the text: (§1) The anti-proliferative activities of 3a–k against human lung cancer cell line (A549), human hepatoma cell line (HepG2), and human breast cancer cell line (MCF-7) were examined. With lupeol and cisplatin as positive controls, the MTT assay was used to evaluate the anti-proliferative activity of all of the synthesized compounds in vitro.
(§2) The MTT (Beyotime, Shanghai, China) colorimetric method was used to test the antitumor activity of the synthetic products. The test compound and the control compound were prepared into the liquid with a concentration of 1, 5, 10, 20, and 40 μmol/L, respectively. The tested tumor cells (A549, HepG2, MCF-7) (Chinese Academy of Sciences, Shanghai, China) were inoculated into 96 well plates with a density of 2 × 10^4 cells/mL, and 90 μL PBS was injected into each well. The 96 well plates were cultured overnight in an incubator, and each well was injected with the same concentration of 10 μL of the test compound. After 48 h, 10 μL of MTT solution was injected into each well. After culture for 4 h, the plates were turned upside down and 100 μL DMSO (Kermel, Tianjin, China) was added. The optical density (OD) values of the compound and the control product were determined at 490 nm wavelength with enzyme-labeled apparatus.

A549, HepG2, MCF-7 = assay: MTT anti-proliferative assay, stated for all three tumor cell lines together; format: cell-based, human; conditions: three tested cell lines
From the text: as §1, §2

HepG2 cells [4] = assay: Annexin V/PI apoptosis by flow cytometry; format: cell-based, human; conditions: 48 h, control 3.03%
Description: HepG2 cells with logarithmic growth stage were selected and inoculated into a designated confocal six-well plate with 2 mL cell suspension per well (1 × 10^6 cells/mL) and cultured in a sterile incubator for 24 h. […] The cellular preparations were initially rinsed with phosphate-buffered saline (PBS), followed by enzymatic detachment using a 0.25% trypsin solution. Post-collection, the cells underwent centrifugation at 800 revolutions per minute (rpm) for a duration of 5 min to pelletize. The resulting cell pellet was subsequently re-suspended in 1 mL of culture medium designed for cell propagation. The 100 µL cell suspension was transferred into a flow detection tube, with 5 µL AnnexinV added, cultured at room temperature away from light for 15 min, and centrifuged at 800 revolutions per minute (rpm) for a period of 5 min, after which the supernatant containing the staining solution was aspirated. Then, 100 µL of binding buffer for re-suspension and 5 µL of PI dye were added and the solution was mixed well and incubated at low temperature, avoiding light for 15 min. The results were measured by flow cytometry.

[5] = test system: PI3K/AKT/mTOR pathway in HepG2 cells; assay: Western blotting of PI3K/AKT/mTOR-related proteins; format: cell-based, human; conditions: HepG2, 2, 4 and 8 μmol/L, 48 h, relative to control
Description: In order to better comprehend the effect of compound 3k·CH3I on the expression of proteins related to the mitochondrial apoptosis pathway, HepG2 cells were treated with 3k·CH3I at different concentrations (0, 2, 4, and 8 μmol/L), and Western blotting was used to determine the expression of related proteins, as shown in Figure 9.
HepG2 cells with logarithmic growth stage were selected to make a single-cell suspension and inoculated into a culture bottle with a cell density of 1 × 10^6 cells/mL. The cells were treated with different concentrations of compound 3k·CH3I (0, 2, 4 and 8 μmol/L) and cultured for 48 h. A mixture of 500 μL of phenylmethylsulfonyl fluoride (PMSF) and radio immunoprecipitation assay (RIPA) lysate was added to each well, and the protein content was determined using the bicinchoninic acid (BCA) assay and denatured at high temperature 30 min later. The protein samples were separated by polyacrylamide gel electrophoresis (SDS-PAGE) and transferred to a polyvinylidene fluoride (PVDF) membrane. The membrane was enclosed in 5% skim milk for 2 h, then specific antibodies of different proteins were added, incubated at 4 °C overnight, and secondary antibodies were added for 2 h. Finally, the gel imager was used for detection. […] The gray-scale of the bands was analyzed by gel imaging image analysis software and the relative protein content was calculated.

HepG2 cells [6] = assay: Mitochondrial membrane potential depolarization, JC-1; format: cell-based, human; conditions: 48 h; for MMP depolarization: JC-1 flow cytometry, control 7.74%
From the text: In order to explore the effect of compound 3k·CH3I on MMP, a JC-1 staining kit was used to detect the depolarization of the MMP of human hepatocellular carcinoma HepG2 cells treated with compound 3k·CH3I, as shown in Figure 8.
Flow cytometry was used to detect the intimal potential of HepG2 cells. […] It was concluded that the apoptosis of HepG2 cells was induced by compound 3k·CH3I and was associated with the mitochondrial-mediated endogenous pathway.
HepG2 cells with logarithmic growth stage were selected and inoculated into a designated confocal six-well plate with 2 mL cell suspension per well (1 × 10^6 cells/mL) and cultured in a sterile incubator for 24 h. The cells were treated with different concentrations of 3k·CH3I (0, 2, 4, 8 μmol/L) and continued to be cultured for 48 h. PBS cleans the cells, 0.25% trypsin digests the cells, and collects the cells. After the drug action time was over, 1 mL of pre-configured JC-1 staining solution was added and incubated for 30 min. After JC-1 incubation, the cells were observed by fluorescence microscope, the supernatant was separated, and the PBS cell suspension was taken and the experimental results were determined by flow cytometry.

SMILES: C=C(C)C1CCC2(C)CCC3(C)C(CCC4C5(C)CCC(OC(=O)N6CCN(c7cc[n+](C)cc7)CC6)C(C)(C)C5CCC43C)C12 (stereo not shown) [Compound 3k·CH3I]
- ROS levels (HepG2 cells [1]): increased significantly
- apoptotic morphological alterations (AO/EB staining) (HepG2 cells [2]): bright red fluorescence due to the chromatin concentration and nuclear fragmentation
- activity on HepG2 relative to lupeol ([3]; HepG2, ratio of IC50): about 10 times
- IC50 ([3]; Homo sapiens, HepG2, MTT assay, 48 h of treatment, three independent experiments, read-out: IC50 (μM) HepG2): 3.13 µM
- anti-proliferative activity compared with lupeol (A549, HepG2, MCF-7): more potent than that of lupeol
- total percentage of apoptotic and necrotic cells (HepG2 cells [4]; HepG2, 4 μmol/L): 45.10%
- total percentage of apoptotic and necrotic cells (HepG2 cells [4]; HepG2, 8 μmol/L): 55.6%
- expression of P-AKT, P-PI3K and P-mTOR [5]: downregulation
- expression of basal forms of AKT, PI3K and mTOR [5]: dose-dependent upregulation
- MMP depolarization (HepG2 cells [6]; HepG2, 2 μmol/L): 17.2%
- MMP depolarization (HepG2 cells [6]; HepG2, 4 μmol/L): 27.3%
- MMP depolarization (HepG2 cells [6]; HepG2, 8 μmol/L): 48.9%
- JC-1 fluorescence (microscopy) (HepG2 cells [6]; HepG2, different concentrations, compared with the control group): the red fluorescence gradually weakened until it eventually disappeared, and the green fluorescence gradually strengthened
